The results in this text go back to patent US10905683B2, “Compositions and uses of amidine derivatives” (BIOCRYST PHARMACEUTICALS, INC., priority 2014, dated 2021).

The nature of data set [1]: Phase 1 safety and tolerability. It is filed as in vivo, human. Conditions: healthy subjects. The protocol:
A two-part, Phase 1, double-blind, placebo-controlled study of the compound of Example 1 was conducted in healthy subjects. Part 1 of the study assessed the safety, tolerability and the pharmacokinetic (PK) and pharmacodynamic (PD) properties of the compound of Example 1 following a single ascending dose. Subjects were enrolled in five sequential cohorts and received the compound of Example 1 (50 mg, 125 mg, 250 mg, 500 mg or 1000 mg; n=6/cohort) or placebo (n=2/cohort) under fasting conditions. To enable a food-effect assessment on exposure, subjects enrolled in Cohort 4 (500 mg or placebo) subsequently received a second dose of the compound of Example 1 following a high-fat breakfast.
Part 2 of the study evaluated the safety, tolerability, PK, and PD of multiple ascending doses of the compound of Example 1. Twelve subjects were administered a 7-day course of the compound of Example 1 (n=10 subjects/cohort received the API and n=2 subjects/cohort received matching placebo) according to the following dose regimens: 100 mg of the compound of Example 1 or placebo every 8 hours (q8h) in Cohort 1; 200 mg of the compound of Example 1 or placebo q8h in Cohort 2; 400 mg of the compound of Example 1 or placebo q8h in Cohort 3 and 800 mg of the compound of Example 1 or placebo q8h in Cohort 4.

A short description of data set [2]: Solubility in organic solvents. It is filed as physicochemical. The protocol:
The solubility of the compound of Example 1 in a range of organic solvents was measured. Solubility assays were performed by the sequential addition of the compound of Example 1 to an appropriate organic solvent while stirring vigorously until a precipitate is formed. The resulting suspension is then shaken for 24 hours at room temperature, filtered and the resulting solution was analyzed by appropriate analytical method. Quantitation was performed by comparison of the concentrations of the resulting solution of the compound of Example 1 to a single point calibration curve using a solution of the reference standard.

On to `C=Cc1cc(C(=O)Nc2ccc(C(=N)N)cc2)c(-c2ccc(C(=O)NCC3CC3)nc2C(=O)O)cc1OC` [Example 1, 3-[2-(4-carbamimidoyl-phenylcarbamoyl)-5-methoxy-4-vinyl-phenyl]-6-(cyclopropylmethyl-carbamoyl)-pyridine-2-carboxylic acid], for which, in data set [1] (Part 1 (50-1000 mg single) and Part 2 (100-800 mg q8h, 7 days)), the safety and tolerability result is “generally safe and well tolerated”. Also, the dose-limiting adverse events entry in data set [1] (Part 1 and Part 2) was “no dose-limiting adverse events”. Besides, the serious adverse events result in data set [1] (Part 1 and Part 2) is listed as “no serious adverse events”. In addition, the “Saturated concentration of Example 1” value was 12.9 mg/mL in data set [2] (Dimethyl acetamide, 40% solvent in water); 24.8 mg/mL in data set [2] (Dimethyl acetamide, 60% solvent in water); 5.9 mg/mL in data set [2] (Ethanol, 40% solvent in water); 21.8 mg/mL in data set [2] (Ethanol, 60% solvent in water); 23.9 mg/mL in data set [2] (Ethanol, 100%); 5.5 mg/mL in data set [2] (Glycerol, 100%). For the same molecule, the “Saturated concentration of Example 1” value is >11 (not saturated) mg/mL in data set [2] (N-Methyl-2-pyrrolidone, 100%, not saturated); 11.9 mg/mL in data set [2] (Polyethylene glycol 400, 40% solvent in water); 18.6 mg/mL in data set [2] (Polyethylene glycol 400, 60% solvent in water); 21.2 mg/mL in data set [2] (Polyethylene glycol 400, 100%); 2.67 mg/mL in data set [2] (Propylene glycol, 40% solvent in water); 27.9 mg/mL in data set [2] (Propylene glycol, 60% solvent in water). For the same molecule, the “Saturated concentration of Example 1” value in data set [2] (Propylene glycol, 100%) is recorded as above 55 mg/mL.
